Assay results published in patent US6503906B1 (priority 2002, dated 2003).
≈ marks a conversion by molar mass, not a printed value.

Columns and labels:
anthrax [1] = tested on: anthrax; set-up: species or system human
anthrax [2] = assay: microbe, parasite or virus in culture; format: cell-based; details: Bacillus anthracis, read-out: MIC against anthrax, mid point adopted in the models
inhalational anthrax = details: human, in vivo; cited from earlier work
[3] = tested on: Bacillus anthracis spores; details: rhesus monkey, in vivo; cited from earlier work
[4] = tested on: most other infectious organisms; details: in vivo; cited from earlier work
[5] = tested on: gram positive and negative bacteria; details: human, in vivo; cited from earlier work

## O=C(O)c1cn(C2CC2)c2cc(N3CCNCC3)c(F)cc2c1=O [ciprofloxacin]
Anthrax [1]
  drop of mortality rate: 2 folds
  reduction of mortality rate with optimized regimens compared to currently recommended regimens: up to 2 folds
Anthrax [2]
  MIC: 0.07 µg/mL (≈ 0.211 µM)
Inhalational anthrax
  overall survival of the US patients: 55%
  survival rate of anthrax patients treated with the drug: 50˜60%
[3]
  protection from the disease: adequately protected from the disease
  survival rate of ciprofloxacin-treated animals: 90%
[4]
  effectiveness against most other infectious organisms: over 80%
[5]
  MIC range of the bacteria in the literature study: 8 to 400 ng/mL
  time to complete bacteria eradication: more than 10 days
